Experimental data taken from patent US11230540B2, “Substituted triazole derivatives and uses thereof” (Bayer Pharma Aktiengesellschaft, priority 2017, dated 2022).
Counter-ions that a name gives are not always drawn.

How the values were obtained:
human V1a receptor = target: T1, human V1a receptor (Homo sapiens, UniProt P37288); test: Cellular in vitro assay for vasopressin receptor activity, V1a receptor cell line (aequorin luminescence); type: cell-based; settings: for IC50: CHO cell line transfected with human V1a receptor, [Arg8]-vasopressin at EC50 concentration, read-out: IC50 hV1a; for ratio IC50 hV2/hV1a: selectivity ratio of the IC50 values hV2/hV1a
T1 construct: expressed in transfected cells; host or cells: CHO K1 (Chinese hamster ovary), also stably transfected with a modified aequorin
T1 sequence (P37288 whole entry): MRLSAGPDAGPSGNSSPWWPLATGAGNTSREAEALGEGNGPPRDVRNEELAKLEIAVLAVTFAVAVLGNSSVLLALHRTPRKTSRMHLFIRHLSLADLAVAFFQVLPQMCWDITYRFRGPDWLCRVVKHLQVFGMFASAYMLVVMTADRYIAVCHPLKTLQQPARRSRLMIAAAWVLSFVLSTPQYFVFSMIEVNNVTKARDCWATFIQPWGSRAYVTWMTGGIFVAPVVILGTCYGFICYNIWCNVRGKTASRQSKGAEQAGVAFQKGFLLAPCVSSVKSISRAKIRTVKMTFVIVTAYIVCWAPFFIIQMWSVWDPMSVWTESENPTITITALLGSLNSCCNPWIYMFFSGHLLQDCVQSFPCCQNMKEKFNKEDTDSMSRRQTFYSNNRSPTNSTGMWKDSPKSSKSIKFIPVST
How it was run: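 Recombinant CHO K1 cells stably expressing human V1a receptor and aequorin, loaded with coelenterazine, were exposed to test compounds for 10 minutes before [Arg^8]-vasopressin at EC50 concentration. Calcium-triggered luminescence was measured immediately, giving IC50 values.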

human V2 receptor = target: T2, human V2 receptor (Homo sapiens, UniProt P30518); test: Cellular in vitro assay for vasopressin receptor activity, V2 receptor cell line (CRE-luciferase); type: cell-based; settings: CHO cell line transfected with human V2 receptor; [Arg8]-vasopressin at EC50 concentration; read-out: IC50 hV2
T2 construct: expressed in transfected cells; host or cells: CHO K1 (Chinese hamster ovary) expressing firefly luciferase under a CRE-responsive promoter
T2 sequence (P30518 whole entry): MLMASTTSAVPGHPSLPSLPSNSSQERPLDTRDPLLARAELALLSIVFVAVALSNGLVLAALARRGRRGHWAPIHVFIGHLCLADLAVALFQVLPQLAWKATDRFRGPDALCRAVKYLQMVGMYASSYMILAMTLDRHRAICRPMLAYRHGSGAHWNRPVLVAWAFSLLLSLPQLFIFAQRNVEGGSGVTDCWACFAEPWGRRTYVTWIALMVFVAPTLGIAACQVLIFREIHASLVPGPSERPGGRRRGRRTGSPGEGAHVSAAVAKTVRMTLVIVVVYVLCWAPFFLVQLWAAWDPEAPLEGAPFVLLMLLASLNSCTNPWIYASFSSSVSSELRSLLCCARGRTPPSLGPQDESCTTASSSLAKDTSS
How it was run: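 CHO K1 cells stably expressing human V2 receptor with CRE-driven firefly luciferase, plated the day before. Test compounds at various concentrations added together with [Arg^8]-vasopressin at EC50 concentration, 3 h at 37° C, 5% CO2. Luminescence read after Triton lysis and luciferin addition; IC50 values reported.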

SMILES | IC50 (human V1a receptor) [nM] | ratio IC50 hV2/hV1a (human V1a receptor) | IC50 (human V2 receptor) [nM]
CON(C)C(=O)c1nc(Cn2nc(-c3ccc(Cl)cc3)n(C[C@H](O)C(F)(F)F)c2=O)nn1-c1ccccc1Cl [Example 44, 1-(2-Chlorophenyl)-3-({3-(4-chlorophenyl)-5-oxo-4-[(2S)-3,3,3-trifluoro-2-hydroxypropyl]-4,5-dihydro-1H-1,2,4-triazol-1-yl}methyl)-N-methoxy-N-methyl-1H-1,2,4-triazole-5-carboxamide] | 1.21 | 7.2 | 8.63
CON(C)C(=O)c1nc(Cn2nc(-c3ccc(Cl)cc3)n(C[C@H](O)C(F)(F)F)c2=O)nn1-c1cccc(Cl)c1 [Example 45, 1-(3-Chlorophenyl)-3-({3-(4-chlorophenyl)-5-oxo-4-[(2S)-3,3,3-trifluoro-2-hydroxypropyl]-4,5-dihydro-1H-1,2,4-triazol-1-yl}methyl)-N-methoxy-N-methyl-1H-1,2,4-triazole-5-carboxamide] | 0.64 | 5.7 | 3.66
CC(C)(N)CNC(=O)c1nc(Cn2nc(-c3ccc(Cl)cc3)n(C[C@H](O)C(F)(F)F)c2=O)nn1-c1ncccc1C(F)(F)F [Example 46, N-(2-Amino-2-methylpropyl)-3-({3-(4-chlorophenyl)-5-oxo-4-[(2S)-3,3,3-trifluoro-2-hydroxypropyl]-4,5-dihydro-1H-1,2,4-triazol-1-yl}methyl)-1-[3-(trifluoromethyl)pyridin-2-yl]-1H1,2,4-triazole-5-carboxamide] | 288 | 5.1 | 1470
O=C(NCC(F)(F)F)c1nc(Cn2nc(-c3ccc(Cl)cc3)n(C[C@H](O)C(F)(F)F)c2=O)nn1-c1ncccc1C(F)(F)F [Example 47, 3-({3-(4-Chlorophenyl)-5-oxo-4-[(2S)-3,3,3-trifluoro-2-hydroxypropyl]-4,5-dihydro-1H-1,2,4-triazol-1-yl}methyl)-N-(2,2,2-trifluoroethyl)-1-[3-(trifluoromethyl)pyridin-2-yl]-1H-1,2,4-triazole-5-carboxamide] | 0.92 | 41.8 | 38.5
CC(C)(C)NC(=O)c1nc(Cn2nc(-c3ccc(Cl)cc3)n(C[C@H](O)C(F)(F)F)c2=O)nn1-c1ncccc1C(F)(F)F [Example 48, N-Tert-butyl-3-({3-(4-chlorophenyl)-5-oxo-4-[(2S)-3,3,3-trifluoro-2-hydroxypropyl]-4,5-dihydro-1H-1,2,4-triazol-1-yl}methyl)-1-[3-(trifluoromethyl)pyridin-2-yl]-1H-1,2,4-triazole-5-carboxamide] | 1.31 | 31.3 | 41
CC1(C)CN(C(=O)c2nc(Cn3nc(-c4ccc(Cl)cc4)n(C[C@H](O)C(F)(F)F)c3=O)nn2-c2ncccc2C(F)(F)F)CCN1 [Example 49, 5-(4-Chlorophenyl)-2-({5-(3,3-dimethylpiperazine-1-carbonyl)-1-[3-(trifluoromethyl)pyridin-2-yl]-1H-1,2,4-triazol-3-yl}methyl)-4-[(2S)-3,3,3-trifluoro-2-hydroxypropyl]-2,4-dihydro-3H-1,2,4-triazol-3-one hydrochloride] | 2.5 | 191.0 | 478
CC(C)(C)CNC(=O)c1nc(Cn2nc(-c3ccc(Cl)cc3)n(C[C@H](O)C(F)(F)F)c2=O)nn1-c1ncccc1C(F)(F)F [Example 50, 3-({3-(4-Chlorophenyl)-5-oxo-4-[(2S)-3,3,3-trifluoro-2-hydroxypropyl]-4,5-dihydro-1H-1,2,4-triazol-1-yl}methyl)-N-(2,2-dimethylpropyl)-1-[3-(trifluoromethyl)pyridin-2-yl]-1H-1,2,4-triazole-5-carboxamide] | 0.7 | 100.0 | 70
CC(C)(O)CNC(=O)c1nc(Cn2nc(-c3ccc(Cl)cc3)n(C[C@H](O)C(F)(F)F)c2=O)nn1-c1ncccc1C(F)(F)F [Example 52, 3-({3-(4-Chlorophenyl)-5-oxo-4-[(2S)-3,3,3-trifluoro-2-hydroxypropyl]-4,5-dihydro-1H-1,2,4-triazol-1-yl}methyl)-N-(2-hydroxy-2-methylpropyl)-1-[3-(trifluoromethyl)pyridin-2-yl]-1H-1,2,4-triazole-5-carboxamide] | 0.47 | 82.8 | 38.5
CC1(CNC(=O)c2nc(Cn3nc(-c4ccc(Cl)cc4)n(C[C@H](O)C(F)(F)F)c3=O)nn2-c2ncccc2C(F)(F)F)COC1 [Example 53, 3-({3-(4-Chlorophenyl)-5-oxo-4-[(2S)-3,3,3-trifluoro-2-hydroxypropyl]-4,5-dihydro-1H-1,2,4-triazol-1-yl}methyl)-N-[(3-methyloxetan-3-yl)methyl]-1-[3-(trifluoromethyl)pyridin-2-yl]-1H1,2,4-triazole-5-carboxamide] | 0.64 | 98.4 | 63
O=C(NCCC(F)(F)F)c1nc(Cn2nc(-c3ccc(Cl)cc3)n(C[C@H](O)C(F)(F)F)c2=O)nn1-c1ncccc1C(F)(F)F [Example 54, 3-({3-(4-Chlorophenyl)-5-oxo-4-[(2S)-3,3,3-trifluoro-2-hydroxypropyl]-4,5-dihydro-1H-1,2,4-triazol-1-yl}methyl)-1-[3-(trifluoromethyl)pyridin-2-yl]-N-(3,3,3-trifluoropropyl)-1H-1,2,4-triazole-5-carboxamide] | 0.78 | 107.1 | 83.5
O=C(NCC1(O)CC1)c1nc(Cn2nc(-c3ccc(Cl)cc3)n(C[C@H](O)C(F)(F)F)c2=O)nn1-c1ncccc1C(F)(F)F [Example 55, 3-({3-(4-Chlorophenyl)-5-oxo-4-[(2S)-3,3,3-trifluoro-2-hydroxypropyl]-4,5-dihydro-1H-1,2,4-triazol-1-yl}methyl)-N-[(1-hydroxycyclopropyl)methyl]-1-[3-(trifluoromethyl)pyridin-2-yl]-1H1,2,4-triazole-5-carboxamide] | 1.54 | 47.2 | 72.5
CC1(C)CN(C(=O)c2nc(Cn3nc(-c4ccc(Cl)cc4)n(C[C@H](O)C(F)(F)F)c3=O)nn2-c2ncccc2C(F)(F)F)CCO1 [Example 56, 5-(4-Chlorophenyl)-2-({5-(2,2-dimethylmorpholine-4-carbonyl)-1-[3-(trifluoromethyl)pyridin-2-yl]-1H-1,2,4-triazol-3-yl}methyl)-4-[(2S)-3,3,3-trifluoro-2-hydroxypropyl]-2,4-dihydro-3H-1,2,4-triazol-3-one] | 1.1 | 214.6 | 235
CC1(O)CCN(C(=O)c2nc(Cn3nc(-c4ccc(Cl)cc4)n(C[C@H](O)C(F)(F)F)c3=O)nn2-c2ncccc2C(F)(F)F)C1 (stereo partly drawn) [Example 57, 5-(4-Chlorophenyl)-2-({5-[(35)-3-hydroxy-3-methylpyrrolidine-1-carbonyl]-1-[3-(trifluoromethyl)pyridin-2-yl]-1H-1,2,4-triazol-3-yl}methyl)-4-[(2S)-3,3,3-trifluoro-2-hydroxypropyl]-2,4-dihydro-3H-1,2,4-triazol-3-one] | 2.75 | 160.0 | 440
O=C(c1nc(Cn2nc(-c3ccc(Cl)cc3)n(C[C@H](O)C(F)(F)F)c2=O)nn1-c1ncccc1C(F)(F)F)N1CC(O)(C(F)(F)F)C1 [Example 58, 5-(4-Chlorophenyl)-2-({5-[3-hydroxy-3-(trifluoromethyl)azetidine-1-carbonyl]-1-[3-(trifluoromethyl)pyridin-2-yl]-1H-1,2,4-triazol-3-yl}methyl)-4-[(2S)-3,3,3-trifluoro-2-hydroxypropyl]-2,4-dihydro-3H-1,2,4-triazol-3-one] | 1.35 | 322.2 | 435
